Data taken from paper PMC4985751, “Enhanced Cationic Charge is a Key Factor in Promoting Staphylocidal Activity of α-Melanocyte Stimulating Hormone via Selective Lipid Affinity” (Scientific Reports, 2016).

Legend:
[1] = RP-HPLC elution, % hydrophobicity; format: physicochemical; conditions: chromatographic, C18 column
Description: A balance between hydrophobicity and cationic charge has been reported to be crucial for the activity of many membrane active CAMPs[39][40][41]. […] For α-MSH it has been shown that the minimum energy conformation is a β-turn which is present in the middle of the sequence spanning the putative message region (residues 6–9)[42]. […] Although, acquisition of secondary structure in the vicinity of phospholipid bilayers has been reported to be crucial for activity, there are examples where no direct correlation between peptide structure acquisition ability and antibacterial activity was observed.

MSSA ATCC 29213 [2] = test: 2 h killing assay (colony count), MSSA; format: cell-based, Staphylococcus aureus; conditions: 10 μM peptide, 37 °C, 10^7 CFU/mL MSSA ATCC 29213, 5 mM HEPES, 20 mM glucose, pH 7.4, mean ± S.D. of three independent experiments
Experimental: (§1) To determine the antibacterial activity, cells (MSSA ATCC 29213 and MRSA ATCC 33591) from secondary culture mid-logarithmic phase were used. The cells were centrifuged, washed and re-suspended in buffer (5 mM HEPES, 20 mM glucose, pH 7.4). The re-suspended cells were adjusted to OD600 of 0.5 spectrophotometrically (~10^8 CFU/mL). Desired cell densities were then exposed to 10 μM concentration of α-MSH and other analogues and incubated at 37 °C for 2 h. After 2 h incubation, the cells were diluted in buffer and small aliquots were plated on BHI agar plates. The plates were incubated overnight at 37 °C. Survival was determined by counting of the colony forming unit (CFU/mL) on agar plate using the following formula[23]: […]

MRSA ATCC 33591 = test: 2 h killing assay (colony count), MRSA; format: cell-based, Staphylococcus aureus; conditions: 10 μM peptide, 37 °C, 10^6 CFU/mL MRSA ATCC 33591, 5 mM HEPES, 20 mM glucose, pH 7.4, mean ± S.D. of three independent experiments
Experimental: as §1

[3] = system: B16 mouse melanoma cells stably expressing human melanocortin receptor MC1R; test: Cyclic-AMP accumulation analysis; format: cell-based; conditions: 600 nM, 1 μM and 10 μM peptide, 10 min
Experimental: The intracellular cyclic-AMP analysis was performed according to a method described elsewhere, with slight modifications. Briefly, B16 mouse melanoma cells stably expressing human melanocortin receptor MC1R were grown to confluence in DMEM medium (Sigma-Aldrich, USA) containing 10% fetal calf serum (FCS) and 1x anti-anti (Gibco). The cells were seeded in 12-well plates 48 h before assay and grown to 10^5 cells/well. For the assay, the medium was removed and cells were washed with 1 mL of media. Then 1 mL DMEM media (without FCS) containing 100 μM 3-isobutyl-1-methylxanthine (IBMX) was added to each well and incubated for 30 min at 37 °C. The media was then discarded and various concentrations of α-MSH and KKK-MSH viz., 600 nM, 1 μM and 10 μM, in 1 mL fresh 25% DMEM media (without FCS) in PBS containing 100 μM IBMX were added to the appropriate wells and incubated for 10 min at 37 °C, 5% CO2. After 10 min the reaction was stopped by aspirating the media and washing the wells with 1 mL PBS. 200 μL 0.1 M hydrochloric acid was then added to each well and the wells were scrapped. The lysates were centrifuged at 600 rcf for 5 min and the supernatants were collected and diluted 1000 times in 0.1 M HCl and used for analysis of the total cyclic-AMP content using Enzyme Immunoassay Kit (Sigma-Aldrich, USA, CA200) according to the manufacturer’s instructions.

MSSA ATCC 29213 [4] = format: cell-based, Staphylococcus aureus; conditions: at 10.47 μM peptide; thereafter marginal increase up to 41.2 μM
Experimental: The cytoplasmic membrane depolarization was measured using membrane potential sensitive cyanine dye DiSC3(5)[57]. Briefly, mid-logarithmic phase MSSA ATCC 29213 cells were washed and re-suspended in buffer (5 mM HEPES, 20 mM glucose, pH 7.2) to an OD600 of 0.05 which corresponds to ~10^7 CFU/mL. Cells were divided into aliquots and incubated with 2 μM of DiSC3(5) for 1 h to get steady baseline fluorescence intensity. The dye-loaded cells were treated with increasing peptide concentrations (2.1 μM, 10.47 μM, 20.83 μM and 41.23 μM). Fluorescence was monitored in a Shimadzu RF-5301 PC spectrofluorimeter at an excitation wavelength of 622 nm and an emission wavelength of 670 nm. The corresponding killing was measured by plating the aliquots onto BHI agar plate to obtain viable bacterial counts.

MSSA ATCC 29213 [5] = test: Membrane permeabilization, PI uptake by flow cytometry; format: cell-based, Staphylococcus aureus; conditions: 10 μM peptide, 1 h, 37 °C, 10^5 CFU/mL in PBS pH 7.4; >10 a.u. counted positive; mean ± S.D. of three independent experiments
Experimental: The propidium iodide (PI) uptake assay was performed to assess membrane permeabilization by flow cytometry according to a method described elsewhere[58]. MSSA ATCC 29213 cells were grown in BHI broth to mid-logarithmic phase and harvested by centrifugation at 4,000 rpm for 10 min. The cell pellet was washed once with PBS (10 mM sodium phosphate, 150 mM NaCl, pH 7.4) and was adjusted to 10^5 CFU/mL in PBS. The cells were incubated with PI (1.3 μg/mL) at 37 °C for 20 min in the dark. After incubating the cells with PI, cells were exposed to peptides (10 μM) at 37 °C. PI fluorescence was measured after 1 h incubation with excitation and emission wavelength of 544 nm and 620 nm, respectively, using Becton Dickinson (BD) FACS verse, San Jose, CA. The cells having more than 10 fluorescence unit (arbitrary) were considered to be stained with PI.

[6] = Lipid binding by Trp fluorescence titration
Experimental: Further, we evaluated the relative binding constants of α-MSH and KKK-MSH to bacterial mimic SUVs to understand if there are differences between lipid binding affinities of these two peptides. Towards this, we incubated a fixed concentration of peptide (12.5 μM) with increasing concentrations of bacterial mimic SUVs (DMPC:DMPG, 7:3, w/w) and concomitant changes in the intensity of emission maxima for Trp residue were recorded. Correction for light scattering was done by subtracting the corresponding spectra of the SUVs alone. […]
Figure 7 Trp fluorescence studies to estimate binding of α-MSH and KKK-MSH to bacterial mimic SUVs. Increasing concentrations of DMPC:DMPG (7:3, w/w) SUVs in 10 mM TES buffer (pH 7.2) were titrated with fixed peptide concentration (12.5 μM) and the emission spectrum was recorded. […] The fluorescence spectrum was recorded at 25 °C by exciting samples at 295 nm and recording emission from 310 nm to 450 nm. […] Contributions from the buffer and SUVs were appropriately subtracted and volume corrected fluorescence values were used to calculate the fraction of bound peptide.
Lipid binding was measured by titrating SUVs (DMPC:DMPG, 7:3, w/w) into 12.5 μM of the peptide by varying lipid to peptide ratio from 75.6 to 3.3. After each addition of lipid, emission spectrum was recorded between 310 to 450 nm using excitation at 295 nm with excitation and emission slit width of 3 nm. […]

[7] = system: 3T3 murine fibroblast cell line; format: cell-based, mouse
Experimental: The cytotoxicity of α-MSH and analogues was tested against 3T3 murine fibroblast cell line using a protocol as described previously. The cell line was propagated at 37 °C in 5% CO2 to over 75% confluence in DMEM supplemented with 10% fetal bovine serum (FBS) and antibiotics and transferred (after treatment with trypsin) to each well of a 24-well plate to a final count of 0.2 × 10^5 cells/well for 24 h. After 24 h, media was aspirated and desired concentration of peptides (50 μM) dissolved in 25% (v/v) DMEM in PBS was added to each well (in triplicate). Triplicate wells without treatment were set as control and wells with 2% Triton X-100 were used as positive control. The plate was kept for 2 h, at 37 °C in 5% CO2 incubator. After 2 h, media was removed and the cells were washed once with 1 mL PBS. In dark, 1 mL MTT (working conc. 0.1 mg/mL) was added to each well and incubated for 2 h at 37 °C. After 2 h, the formazan crystals formed were dissolved in 200 μL of DMSO and kept for 5 min in the incubator. 150 μL of this mixture was transferred to a fresh 96-well plate and absorbance was measured spectrophotometrically at 570 nm. % cytotoxicity was calculated as [(OD570 of control-OD570 of sample)/(OD570 of control)] × 100. The assay was done in triplicate on three different days.

Row | Substance | % H (% hydrophobicity based on % of acetonitrile at RP-HPLC elution) [1] [%] | Reduction in initial cell count (MSSA ATCC 29213 [2]) [Log10 CFU/mL] | Reduction in initial cell count (MRSA ATCC 33591) [Log10 CFU/mL] | Cyclic-AMP levels compared to untreated control ([3]; 37 °C, 100 μM IBMX, enzyme immunoassay, p < 0.05) | Cyclic-AMP levels compared to α-MSH ([3]; comparable at higher, lower at lower concentration) | Membrane depolarization, relative fluorescence intensity (RFI) of DiSC3(5) (MSSA ATCC 29213 [4]) | Cells retaining PI (PI positive cells) (MSSA ATCC 29213 [5]) [%] | Binding constant to bacterial mimic SUVs ([6]; 12.5 μM peptide titrated with DMPC:DMPG (7:3, w/w) SUVs, L:P 75.6 to 3.3, 10 mM TES pH 7.2, 25 °C, hyperbolic fit, one site model) | Binding constant relative to α-MSH ([6]; DMPC:DMPG (7:3, w/w) SUVs, steady-state fluorescence) | Cytotoxicity relative to growth control [7] [%]
1 | Ac-KYKMKHFRWGKPV-NH2 [KKK-MSH] | 39.9 | 4.07 ± 0.92 | 3.81 ± 0.33 | dose-dependent elevation in cyclic-AMP | comparable or lower levels of cyclic-AMP | appreciable increase in RFI | 67.6 ± 3.4 | 15,402.74 M^−1 | ~ 18 fold | 
2 | Triton X-100 |  |  |  |  |  |  |  |  |  | 83
